Reference: PubChem BioAssay AID1919002 (Molecular Pharmacology Branch, DTP, NCI, 2023)

System: 743489-274-T-PDC complex spheroid growth
Assay: Anticancer human tumor 743489-274-T-PDC patient-derived renal cell carcinoma cell line growth inhibition [AhR]
Settings: for IC50: curve of first compound; for viability, T/C: stronger effect = lower value
How it was run: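 Complex tumor spheroids co-cultured with HUVEC and human MSC stroma; AhR antagonists tested in combination with standard-of-care and investigational agents. Top concentration at or near clinical Cmax (else 10 microM), half-log dilutions; growth expressed as percent test/control.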

[1] = second compound 0.1 µM, first compound 0.0316 µM
[2] = second compound 0.1 µM, first compound 0.1 µM
[3] = second compound 0.1 µM, first compound 0.316 µM
[4] = second compound 0.1 µM, first compound 1 µM
[5] = second compound 0.1 µM, first compound 3.16 µM
[6] = second compound 0.1 µM, first compound 10 µM
[7] = second compound 0.316 µM, first compound 0.0316 µM
[8] = second compound 0.316 µM, first compound 0.1 µM
[9] = second compound 0.316 µM, first compound 0.316 µM
[10] = second compound 0.316 µM, first compound 1 µM
[11] = second compound 0.316 µM, first compound 3.16 µM
[12] = second compound 0.316 µM, first compound 10 µM
[13] = second compound 1 µM, first compound 0.0316 µM
[14] = second compound 1 µM, first compound 0.1 µM
[15] = second compound 1 µM, first compound 0.316 µM
[16] = second compound 1 µM, first compound 1 µM
[17] = second compound 1 µM, first compound 3.16 µM
[18] = second compound 1 µM, first compound 10 µM
[19] = second compound 3.16 µM, first compound 0.0316 µM
[20] = second compound 3.16 µM, first compound 0.1 µM
[21] = second compound 3.16 µM, first compound 0.316 µM
[22] = second compound 3.16 µM, first compound 1 µM
[23] = second compound 3.16 µM, first compound 3.16 µM
[24] = second compound 3.16 µM, first compound 10 µM
[25] = second compound 10 µM, first compound 0.0316 µM
[26] = second compound 10 µM, first compound 0.1 µM
[27] = second compound 10 µM, first compound 0.316 µM
[28] = second compound 10 µM, first compound 1 µM
[29] = second compound 10 µM, first compound 3.16 µM
[30] = second compound 10 µM, first compound 10 µM
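Note: spheroids exposed to agents for 7 days before readout.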
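Throughout, for viability, T/C: 100% = DMSO vehicle control wells.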

Structure (SMILES): COc1cc(Nc2ncc3c(n2)-c2ccc(Cl)cc2C(c2c(F)cccc2OC)=NC3)ccc1C(=O)O + CC(CO)NC(=O)c1cc(-c2ccc(Cl)cc2)nn(-c2cnn(C)c2)c1=O
- IC50 (second compound 0.1 µM): > 10 µM
- IC50 (second compound 0.316 µM): > 10 µM
- IC50 (second compound 1 µM): > 10 µM
- IC50 (second compound 3.16 µM): > 10 µM
- IC50 (second compound 10 µM): > 10 µM
- viability, T/C [1]: 96.9%
- viability, T/C [2]: 95.2%
- viability, T/C [3]: 91.4%
- viability, T/C [4]: 84.4%
- viability, T/C [5]: 86.4%
- viability, T/C [6]: 88.9%
- viability, T/C [7]: 98.7%
- viability, T/C [8]: 90.3%
- viability, T/C [9]: 91.3%
- viability, T/C [10]: 86.6%
- viability, T/C [11]: 93.5%
- viability, T/C [12]: 85.5%
- viability, T/C [13]: 90.6%
- viability, T/C [14]: 97.3%
- viability, T/C [15]: 95.5%
- viability, T/C [16]: 76.4%
- viability, T/C [17]: 87.9%
- viability, T/C [18]: 87.3%
- viability, T/C [19]: 101%
- viability, T/C [20]: 104%
- viability, T/C [21]: 95.2%
- viability, T/C [22]: 85.7%
- viability, T/C [23]: 82%
- viability, T/C [24]: 84.9%
- viability, T/C [25]: 91.2%
- viability, T/C [26]: 102%
- viability, T/C [27]: 86.9%
- viability, T/C [28]: 93.9%
- viability, T/C [29]: 88.6%
- viability, T/C [30]: 94.5%

Structure (SMILES): Cn1ncnc1C1c2n[nH]c(=O)c3cc(F)cc(c23)NC1c1ccc(F)cc1 (stereo not given) + CC(CO)NC(=O)c1cc(-c2ccc(Cl)cc2)nn(-c2cnn(C)c2)c1=O
- IC50 (second compound 0.1 µM): > 0.1 µM
- IC50 (second compound 0.316 µM): > 0.1 µM
- IC50 (second compound 1 µM): > 0.1 µM
- IC50 (second compound 3.16 µM): > 0.1 µM
- IC50 (second compound 10 µM): > 0.1 µM
- viability, T/C (second compound 0.1 µM, first compound 0.000316 µM): 90.7%
- viability, T/C (second compound 0.1 µM, first compound 0.001 µM): 98%
- viability, T/C (second compound 0.1 µM, first compound 0.00316 µM): 106%
- viability, T/C (second compound 0.1 µM, first compound 0.01 µM): 95%
- viability, T/C [1]: 89.6%
- viability, T/C [2]: 86.8%
- viability, T/C (second compound 0.316 µM, first compound 0.000316 µM): 85.5%
- viability, T/C (second compound 0.316 µM, first compound 0.001 µM): 95.8%
- viability, T/C (second compound 0.316 µM, first compound 0.00316 µM): 115%
- viability, T/C (second compound 0.316 µM, first compound 0.01 µM): 88%
- viability, T/C [7]: 80.6%
- viability, T/C [8]: 84.8%
- viability, T/C (second compound 1 µM, first compound 0.000316 µM): 94.1%
- viability, T/C (second compound 1 µM, first compound 0.001 µM): 97.6%
- viability, T/C (second compound 1 µM, first compound 0.00316 µM): 102%
- viability, T/C (second compound 1 µM, first compound 0.01 µM): 87%
- viability, T/C [13]: 82.7%
- viability, T/C [14]: 91.8%
- viability, T/C (second compound 3.16 µM, first compound 0.000316 µM): 93.9%
- viability, T/C (second compound 3.16 µM, first compound 0.001 µM): 92.2%
- viability, T/C (second compound 3.16 µM, first compound 0.00316 µM): 91.4%
- viability, T/C (second compound 3.16 µM, first compound 0.01 µM): 92.1%
- viability, T/C [19]: 89.4%
- viability, T/C [20]: 93.4%
- viability, T/C (second compound 10 µM, first compound 0.000316 µM): 83.7%
- viability, T/C (second compound 10 µM, first compound 0.001 µM): 86.3%
- viability, T/C (second compound 10 µM, first compound 0.00316 µM): 85%
- viability, T/C (second compound 10 µM, first compound 0.01 µM): 99%
- viability, T/C [25]: 90.9%
- viability, T/C [26]: 83.1%

Structure (SMILES): NS(=O)(=O)OCC1CC(n2ccc3c(NC4CCc5ccccc54)ncnc32)CC1O (stereo not given) + CC(CO)NC(=O)c1cc(-c2ccc(Cl)cc2)nn(-c2cnn(C)c2)c1=O
- IC50 (second compound 0.1 µM): > 10 µM
- IC50 (second compound 0.316 µM): > 10 µM
- IC50 (second compound 1 µM): > 10 µM
- IC50 (second compound 3.16 µM): > 10 µM
- IC50 (second compound 10 µM): > 10 µM
- viability, T/C [1]: 89.3%
- viability, T/C [2]: 89.7%
- viability, T/C [3]: 101%
- viability, T/C [4]: 123%
- viability, T/C [5]: 149%
- viability, T/C [6]: 155%
- viability, T/C [7]: 86.1%
- viability, T/C [8]: 82.3%
- viability, T/C [9]: 85.7%
- viability, T/C [10]: 119%
- viability, T/C [11]: 148%
- viability, T/C [12]: 156%
- viability, T/C [13]: 82.3%
- viability, T/C [14]: 96.7%
- viability, T/C [15]: 99.2%
- viability, T/C [16]: 116%
- viability, T/C [17]: 141%
- viability, T/C [18]: 143%
- viability, T/C [19]: 91.1%
- viability, T/C [20]: 86.1%
- viability, T/C [21]: 99.2%
- viability, T/C [22]: 109%
- viability, T/C [23]: 132%
- viability, T/C [24]: 136%
- viability, T/C [25]: 89.5%
- viability, T/C [26]: 96.1%
- viability, T/C [27]: 84.8%
- viability, T/C [28]: 112%
- viability, T/C [29]: 119%
- viability, T/C [30]: 129%

Structure (SMILES): O=C(C=Cc1cccc(S(=O)(=O)Nc2ccccc2)c1)NO + CC(CO)NC(=O)c1cc(-c2ccc(Cl)cc2)nn(-c2cnn(C)c2)c1=O
- IC50 (second compound 0.1 µM): 9.26 µM
- IC50 (second compound 0.316 µM): 7.72 µM
- IC50 (second compound 1 µM): 9.6 µM
- IC50 (second compound 3.16 µM): 8.29 µM
- IC50 (second compound 10 µM): 7.34 µM
- viability, T/C [1]: 97.6%
- viability, T/C [2]: 87.1%
- viability, T/C [3]: 86.9%
- viability, T/C [4]: 80.3%
- viability, T/C [5]: 76.4%
- viability, T/C [6]: 47.1%
- viability, T/C [7]: 82.4%
- viability, T/C [8]: 88.5%
- viability, T/C [9]: 74.4%
- viability, T/C [10]: 76.9%
- viability, T/C [11]: 61.8%
- viability, T/C [12]: 46.4%
- viability, T/C [13]: 82.5%
- viability, T/C [14]: 89%
- viability, T/C [15]: 84%
- viability, T/C [16]: 75.8%
- viability, T/C [17]: 62.7%
- viability, T/C [18]: 49.4%
- viability, T/C [19]: 82.5%
- viability, T/C [20]: 80%
- viability, T/C [21]: 76.2%
- viability, T/C [22]: 70.2%
- viability, T/C [23]: 59.2%
- viability, T/C [24]: 48.3%
- viability, T/C [25]: 85.3%
- viability, T/C [26]: 87.8%
- viability, T/C [27]: 83.2%
- viability, T/C [28]: 74.7%
- viability, T/C [29]: 66.9%
- viability, T/C [30]: 43.9%
